Measured values: patent EP4692061A1, “LOW-MOLECULAR-WEIGHT COMPOUND HAVING CEREBLON-BINDING ACTIVITY, AND USE THEREOF” (Aevis Bio, Inc., priority 2023, dated 2024)
Read-outs that look alike come from different tables or passages of the source.

What was measured:
[1] = test system: MM.1R-LR; test: Tumor cell viability, CCK-8 assay, MM.1R-LR; type: cell-based; conditions: MM.1R-LR (drug-resistant human multiple myeloma); compound treatment 1uM; 5 days
Protocol: (§1) To examine whether the compounds having CRBN-binding activity according to the present invention exert tumor cell apoptosis effects, the assay was conducted using various human cancer cell lines, including human multiple myeloma cell lines (MM.1S and MM.1R-LR), a human breast cancer cell line (MDA-MB-231), a human lung cancer cell line (A549), a human rhabdomyosarcoma cell line (RD), and a human lymphoma cell line (Jeko-1).
(§2) The MM.1S, MM.1R-LR, MDA-MB-231, A549, RD, and Jeko-1 cell lines were obtained from the American Type Culture Collection (ATCC, Manassas, VA, USA) and cultured in RPMI 1640 medium (Corning, MD, USA) or DMEM (Corning, MD, USA) supplemented with 10% fetal bovine serum (FBS) (Corning, MD, USA), 100 U/mL penicillin (Corning, MD, USA), and 100 µg/mL streptomycin (Corning, MD, USA) at 37°C in a 5% CO2 incubator for 24 hours. The cells were seeded at a density of 1 × 10^4 cells/well in 96-well plates and incubated for 24 hours. After incubation, the test compounds dissolved in dimethyl sulfoxide (DMSO, CAS No.: 67-68-5) were serially diluted to a final concentration of 10 µM and applied to the cells. Following an additional incubation for 2 to 5 days, the analysis was performed using a CCK-8 assay kit (Dojindo, Japan) according to the manufacturer's instructions.

[2] = test system: MM.1S; test: Tumor cell viability, CCK-8 assay, MM.1S; type: cell-based; conditions: MM.1S (human multiple myeloma); compound treatment 1uM; 5 days
Protocol: as §1, §2

[3] = target: cereblon (CRBN) (Homo sapiens, UniProt Q96SW2); test: In vitro CRBN binding assay (AlphaScreen, competitive inhibition of the PROTAC assay)
[4] = Table 1, AlphaScreen, PROTAC Optimization Kit for BET Bromodomain-Cereblon Binding, read-out: Alpha IC50

Compound	IC50 [3, 4] [nM]	further results
O=C1CCC(c2cccc(NS(=O)(=O)c3cccc(NC(=O)c4ccc(Cl)cc4)c3)c2)C(=O)N1 (stereo not drawn) [AEV41 001, 4-chloro-N-(3-(N-(3-(2,6-dioxopiperidin-3-yl)phenyl)sulfamoyl)phenyl)benzamide]	1230	Cell viability (% of control) [1]: 78.4 % of control; Cell viability (% of control) [2]: 88.3 % of control
Cc1cc(Cl)ccc1C(=O)Nc1cccc(C2CCC(=O)NC2=O)c1 (stereo not drawn) [AEV40147]	1370	
COc1cc(Cl)ccc1C(=O)Nc1cccc(C2CCC(=O)NC2=O)c1 (stereo not drawn) [AEV40148]	1120	
O=C1CCC(c2cccc(NS(=O)(=O)c3cccc(NC(=O)c4c(F)cccc4C(F)(F)F)c3)c2)C(=O)N1 (stereo not drawn) [AEV40149]	1500	
O=C1CCC(c2cccc(NS(=O)(=O)c3cccc(NC(=O)c4ccc(Cl)cc4Cl)c3)c2)C(=O)N1 (stereo not drawn) [AEV40150]	1820	
COc1ccccc1C(=O)Nc1cccc(S(=O)(=O)Nc2cccc(C3CCC(=O)NC3=O)c2)c1 (stereo not drawn) [AEV40151]	340	
O=C1CCC(c2cccc(NS(=O)(=O)c3cccc(NC(=O)c4ccccc4C(F)(F)F)c3)c2)C(=O)N1 (stereo not drawn) [AEV40152]	720	
O=C1CCC(c2cccc(NS(=O)(=O)c3cccc(NC(=O)c4cc(F)c(F)cc4F)c3)c2)C(=O)N1 (stereo not drawn) [AEV40153]	800	
O=C1CCC(c2cccc(NS(=O)(=O)c3cccc(NC(=O)c4ccccc4Br)c3)c2)C(=O)N1 (stereo not drawn) [AEV40155]	950	
O=C1CCC(c2cccc(NS(=O)(=O)c3cccc(NC(=O)c4c(F)cccc4F)c3)c2)C(=O)N1 (stereo not drawn) [AEV40156]	1250	
O=C1CCC(c2cccc(NS(=O)(=O)c3cccc(NC(=O)c4cccc(Br)c4)c3)c2)C(=O)N1 (stereo not drawn) [AEV40157]	730	
O=C1CCC(c2cccc(NS(=O)(=O)c3cccc(NC(=O)c4cc(F)cc(F)c4F)c3)c2)C(=O)N1 (stereo not drawn) [AEV40158]	710	
O=C1CCC(c2cccc(NS(=O)(=O)c3cccc(NC(=O)c4c(Cl)ccc(Cl)c4F)c3)c2)C(=O)N1 (stereo not drawn) [AEV40159]	1490	
CCOC(=O)/C=C/c1cc(C)ccc1C1CCC(=O)NC1=O (stereo not drawn) [AEV40160]	2920	
O=C1CCC(c2cccc(NC(=O)c3ccc(-c4ccccc4)cc3)c2)C(=O)N1 (stereo not drawn) [AEV40161]	> 10000	
O=C1CCC(c2cccc(NC(=O)c3cccc(-c4ccccc4)c3)c2)C(=O)N1 (stereo not drawn) [AEV40162]	2150	
O=C1CCC(c2cccc(NS(=O)(=O)c3cccc(NCc4cc5ccccc5[nH]4)c3)c2)C(=O)N1 (stereo not drawn) [AEV40163]	1430	
O=C1CCC(c2cccc(NC(=O)c3ccc(F)cc3F)c2)C(=O)N1 (stereo not drawn) [AEV40164]	1670	
Cc1ccc(C(=O)Nc2cccc(C3CCC(=O)NC3=O)c2)c(C)c1 (stereo not drawn) [AEV40165]	930	
O=C1CCC(c2cccc(NC(=O)c3ccc(F)c(F)c3)c2)C(=O)N1 (stereo not drawn) [AEV40166]	2520	

Compound	IC50 [3, 4] [nM]	further results
O=C1CCC(c2cccc(NS(=O)(=O)c3cccc(NCc4ccc5[nH]ccc5c4)c3)c2)C(=O)N1 (stereo not drawn) [AEV40171]	1280	
O=C1CCC(c2cccc(NS(=O)(=O)c3cccc(NCc4ccc5ocnc5c4)c3)c2)C(=O)N1 (stereo not drawn) [AEV40172]	210	
O=C1CCC(c2cccc(NS(=O)(=O)c3cccc(NCc4c[nH]c5ccc(Cl)cc45)c3)c2)C(=O)N1 (stereo not drawn) [AEV40173]	400	
COc1ccc(C(=O)Nc2cccc(C3CCC(=O)NC3=O)c2)c(Cl)c1 (stereo not drawn) [AEV40176]	1240	
O=C1CCC(c2cccc(NC(=O)c3cc(Cl)ccc3Cl)c2)C(=O)N1 (stereo not drawn) [AEV40178]	920	
O=C1CCC(c2cccc(NC(=O)c3ccccc3Br)c2)C(=O)N1 (stereo not drawn) [AEV40179]	640	
O=C1CCC(c2cccc(NC(=O)c3ccccc3C(F)(F)F)c2)C(=O)N1 (stereo not drawn) [AEV40180]	1130	
Cc1ccc(NC(=O)Nc2cccc(S(=O)(=O)Nc3cccc(C4CCC(=O)NC4=O)c3)c2)cc1Cl (stereo not drawn) [AEV40181]		IC50 [3]: 320 nM
O=C1CCC(c2cccc(NC(=O)c3sccc3Cl)c2)C(=O)N1 (stereo not drawn) [AEV40182]	880	
O=C1CCC(c2cccc(NC(=O)c3n[nH]cc3Cl)c2)C(=O)N1 (stereo not drawn) [AEV40183]	1050	
COC(=O)CCc1cccc(Nc2cccc(C3CCC(=O)NC3=O)c2)c1 (stereo not drawn) [AEV40184]	1410	
Cc1ccc(NC(=O)CCc2cccc(Nc3cccc(C4CCC(=O)NC4=O)c3)c2)cc1Cl (stereo not drawn) [AEV40185]	4350	
CC(C)(C)OC(=O)NCc1cccc(Nc2cccc(C3CCC(=O)NC3=O)c2)c1 (stereo not drawn) [AEV40186]	2630	
O=C1CCC(c2cccc(NC(=O)c3ccc4ccccc4n3)c2)C(=O)N1 (stereo not drawn) [AEV40187]	830	
Cn1cc(Cl)c(C(=O)Nc2cccc(C3CCC(=O)NC3=O)c2)n1 (stereo not drawn) [AEV40188]	1000	
O=C1CCC(c2cccc(NC(=O)c3ccsc3Cl)c2)C(=O)N1 (stereo not drawn) [AEV40189]	1630	
O=C1CCC(c2cccc(NC(=O)c3cc4ccccc4[nH]3)c2)C(=O)N1 (stereo not drawn) [AEV40190]	2140	
O=C1CCC(c2cccc(NC(=O)c3cccc4[nH]ccc34)c2)C(=O)N1 (stereo not drawn) [AEV40191]	480	
Cc1ccc(NC(=O)NCc2cccc(Nc3cccc(C4CCC(=O)NC4=O)c3)c2)cc1Cl (stereo not drawn) [AEV40192]	3220	
CCCOc1ccc(C(=O)Nc2cccc(S(=O)(=O)Nc3cccc(C4CCC(=O)NC4=O)c3)c2)cc1 (stereo not drawn) [AEV40193]	860	

Further lines, with some results ahead:

IC50 [3, 4] [nM]	Compound	further results
850	O=C1CCC(c2cccc(NC(=O)c3c[nH]c4ccccc34)c2)C(=O)N1 (stereo not drawn) [AEV40194]	
1230	CN1CCN(c2ccc(NC(=O)CCc3cccc(Nc4cccc(C5CCC(=O)NC5=O)c4)c3)cc2)CC1 (stereo not drawn) [AEV40196]	
3470	CCCCCCOc1ccc(NC(=O)CCc2cccc(Nc3cccc(C4CCC(=O)NC4=O)c3)c2)cc1 (stereo not drawn) [AEV40199]	
960	CC(=O)N1CCC(NC(=O)CCc2cccc(Nc3cccc(C4CCC(=O)NC4=O)c3)c2)CC1 (stereo not drawn) [AEV40200]	
1220	Nc1cc(-c2ccccc2)n(C(=O)CCc2cccc(Nc3cccc(C4CCC(=O)NC4=O)c3)c2)n1 (stereo not drawn) [AEV40201]	
790	Nc1nn(C(=O)CCc2cccc(Nc3cccc(C4CCC(=O)NC4=O)c3)c2)c2ccccc12 (stereo not drawn) [AEV40202]	
1800	O=C1CCC(c2ccc3ncoc3c2)C(=O)N1 (stereo not drawn) [AEV40203]	
840	O=C1CCC(c2cccc(Nc3cccc(CCC(=O)N4CCS(=O)(=O)CC4)c3)c2)C(=O)N1 (stereo not drawn) [AEV40205]	
3690	Nc1cccc(N2CCOc3cc(C4CCC(=O)NC4=O)ccc3C2=O)c1 (stereo not drawn) [AEV40206]	
4570	O=C1CCC(c2ccc3oc(N4CCOCC4)nc3c2)C(=O)N1 (stereo not drawn) [AEV40207]	
3540	O=C1CCC(c2ccc3oc(N4CCCCC4)nc3c2)C(=O)N1 (stereo not drawn) [AEV40208]	
910	O=C1CCC(c2cccc(Nc3cccc(CCC(=O)Nc4cc(-c5ccccc5)[nH]n4)c3)c2)C(=O)N1 (stereo not drawn) [AEV40209]	
1220	COC(=O)C1CC2(CC(NC(=O)CCc3cccc(Nc4cccc(C5CCC(=O)NC5=O)c4)c3)C2)C1 (stereo not drawn) [AEV40210]	
> 100000	O=C1CCC(c2cccc(Nc3cccc(CCC(=O)NC4CC5(C4)CC(C(=O)O)C5)c3)c2)C(=O)N1 (stereo not drawn) [AEV40211]	
2300	CC1(C(=O)Nc2cccc(N3CCOc4cc(C5CCC(=O)NC5=O)ccc4C3=O)c2)CC1 (stereo not drawn) [AEV40212]	
2110	CC1CCC(C(=O)Nc2cccc(N3CCOc4cc(C5CCC(=O)NC5=O)ccc4C3=O)c2)CC1 (stereo not drawn) [AEV40213]	
820	CCCCc1ccc(C(=O)Nc2cccc(N3CCOc4cc(C5CCC(=O)NC5=O)ccc4C3=O)c2)cc1 (stereo not drawn) [AEV40214]	
2160	O=C1CCC(c2ccc3c(c2)OCCN(c2cccc(NC(=O)C4(C(=O)Nc5ccc(F)cc5)CC4)c2)C3=O)C(=O)N1 (stereo not drawn) [AEV40215]	
2510	O=C1CCC(c2ccc3c(c2)OCCN(c2cccc(NC(=O)C4CCOCC4)c2)C3=O)C(=O)N1 (stereo not drawn) [AEV40216]	
1180	O=C1CCC(c2ccc3c(c2)OCCN(c2cccc(NC(=O)c4ccc(Cl)cc4Cl)c2)C3=O)C(=O)N1 (stereo not drawn) [AEV40217]	
440	O=C1CCC(c2cccc(NC(=O)c3ccccc3-c3ccccc3)c2)C(=O)N1 (stereo not drawn) [AEV40218]	
2210	O=C1CCC(c2cccc(Nc3cccc(NC(=O)C4(C(=O)Nc5ccc(F)cc5)CC4)c3)c2)C(=O)N1 (stereo not drawn) [AEV40219]	
2110	O=C1CCC(c2cccc(Nc3cccc(NC(=O)c4ccc(Cl)cc4Cl)c3)c2)C(=O)N1 (stereo not drawn) [AEV40220]	
1650	CCCCc1ccc(C(=O)Nc2cccc(Nc3cccc(C4CCC(=O)NC4=O)c3)c2)cc1 (stereo not drawn) [AEV40221]	
1720	O=C1CCC(c2cccc(NC(=O)c3cc(-c4ccccc4)ccc3Cl)c2)C(=O)N1 (stereo not drawn) [AEV40222]	
1380	O=C1CCC(c2cccc(NC(=O)c3cc(Br)ccc3Cl)c2)C(=O)N1 (stereo not drawn) [AEV40223]	
2130	CC1CCC(C(=O)Nc2cccc(S(=O)(=O)Nc3cccc(C4CCC(=O)NC4=O)c3)c2)CC1 (stereo not drawn) [AEV40224]	
12100	O=C1CCC(c2cccc(NS(=O)(=O)c3cccc(NC(=O)C4CCOCC4)c3)c2)C(=O)N1 (stereo not drawn) [AEV40225]	
2220	COC(=O)c1cccc(S(=O)(=O)Nc2cccc(C3CCC(=O)NC3=O)c2)c1 (stereo not drawn) [AEV40226]	
980	CC1(C(=O)Nc2cccc(S(=O)(=O)Nc3cccc(C4CCC(=O)NC4=O)c3)c2)CC1 (stereo not drawn) [AEV40227]	
